# Results reported in ChEMBL document CHEMBL5244278, “Bioisosteres of the Phenyl Ring: Recent Strategic Applications in Lead Optimization and Drug Design” (J Med Chem, 2021).
# What was measured:
# Vasopressin V1a receptor = Vasopressin V1a receptor (Homo sapiens, UniProt P37288)
# [1] = human, microsomes
# in vitro [2] = details: human, Caco-2
# physchem [3] = details: buffer, pH 7.4
# in vitro [4] = details: human, liver microsomes
# in vitro [5] = details: rat, liver microsomes
# in vitro [6] = details: mouse, liver microsomes
# [7] = molecular target: T1, Beta-2 adrenergic receptor (Bos taurus, UniProt Q28044); experiment: Binding affinity to bovine lung membrane adrenergic beta-2 receptor; format: cell membranes
# [8] = molecular target: T1, Beta-2 adrenergic receptor; experiment: Antagonist activity at bovine lung membrane adrenergic beta-2 receptor; format: cell membranes
# [9] = molecular target: T2, Beta-1 adrenergic receptor (Rattus norvegicus, UniProt P18090)
# [10] = molecular target: T2, Beta-1 adrenergic receptor; remark: listed apart in the source
# in vitro [11] = details: human, Caco-2; remark: listed apart in the source
# Hepatitis C virus [12] = experiment: Antiviral activity against HCV GT3a-genotype assessed as inhibition of viral replication; format: functional, organism-based, Hepacivirus hominis
# Hepatitis C virus [13] = experiment: Antiviral activity against HCV GT2a-genotype assessed as inhibition of viral replication; format: functional, organism-based, Hepacivirus hominis
# Hepatitis C virus [14] = experiment: Antiviral activity against HCV GT4a-genotype assessed as inhibition of viral replication; format: functional, organism-based, Hepacivirus hominis
# Hepatitis C virus [15] = experiment: Antiviral activity against HCV GT5a-genotype assessed as inhibition of viral replication; format: functional, organism-based, Hepacivirus hominis
# Hepatitis C virus [16] = experiment: microbe, parasite or virus in culture; details: GT1a-genotype
# Hepatitis C virus [17] = experiment: microbe, parasite or virus in culture; details: GT1b-genotype
# Influenza A virus = experiment: Antiviral activity against Influenza A virus A/PR/8/34 (PR8) strain infected in MDCK cells assessed as reduction in viral infection incubated for 72 hrs by crystal violet staining based assay; format: functional, organism-based
# [18] = molecular target: Polymerase acidic protein (Influenza A virus (A/Puerto Rico/8/1934(H1N1)), UniProt P03433)
# physchem [19] = details: octanol/PBS, pH 7.6
# T2 sequence (P18090 whole entry): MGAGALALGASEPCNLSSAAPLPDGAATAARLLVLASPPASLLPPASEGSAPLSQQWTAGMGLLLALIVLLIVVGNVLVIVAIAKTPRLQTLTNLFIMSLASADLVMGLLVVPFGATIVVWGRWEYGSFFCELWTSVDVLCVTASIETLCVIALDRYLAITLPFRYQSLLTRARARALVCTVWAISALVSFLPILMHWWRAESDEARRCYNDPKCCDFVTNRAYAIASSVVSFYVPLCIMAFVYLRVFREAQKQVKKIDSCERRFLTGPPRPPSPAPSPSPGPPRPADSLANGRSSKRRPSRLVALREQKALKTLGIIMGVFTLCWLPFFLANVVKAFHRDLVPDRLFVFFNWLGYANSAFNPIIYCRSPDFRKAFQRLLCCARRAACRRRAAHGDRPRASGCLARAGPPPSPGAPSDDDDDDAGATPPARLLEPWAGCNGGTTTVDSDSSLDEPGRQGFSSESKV
# T1 sequence (Q28044 whole entry): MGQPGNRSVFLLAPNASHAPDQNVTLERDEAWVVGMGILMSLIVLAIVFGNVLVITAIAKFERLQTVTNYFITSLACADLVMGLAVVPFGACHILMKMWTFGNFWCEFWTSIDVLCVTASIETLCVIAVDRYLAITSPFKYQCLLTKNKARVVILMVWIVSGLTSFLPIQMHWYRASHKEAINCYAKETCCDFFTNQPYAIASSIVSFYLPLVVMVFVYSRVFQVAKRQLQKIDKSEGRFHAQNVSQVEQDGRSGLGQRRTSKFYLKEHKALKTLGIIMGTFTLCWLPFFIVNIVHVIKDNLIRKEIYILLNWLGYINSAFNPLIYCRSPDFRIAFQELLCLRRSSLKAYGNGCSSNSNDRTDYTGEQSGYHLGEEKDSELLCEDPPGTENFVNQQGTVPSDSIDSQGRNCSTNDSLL
# Sequence of Vasopressin V1a receptor (P37288 whole entry): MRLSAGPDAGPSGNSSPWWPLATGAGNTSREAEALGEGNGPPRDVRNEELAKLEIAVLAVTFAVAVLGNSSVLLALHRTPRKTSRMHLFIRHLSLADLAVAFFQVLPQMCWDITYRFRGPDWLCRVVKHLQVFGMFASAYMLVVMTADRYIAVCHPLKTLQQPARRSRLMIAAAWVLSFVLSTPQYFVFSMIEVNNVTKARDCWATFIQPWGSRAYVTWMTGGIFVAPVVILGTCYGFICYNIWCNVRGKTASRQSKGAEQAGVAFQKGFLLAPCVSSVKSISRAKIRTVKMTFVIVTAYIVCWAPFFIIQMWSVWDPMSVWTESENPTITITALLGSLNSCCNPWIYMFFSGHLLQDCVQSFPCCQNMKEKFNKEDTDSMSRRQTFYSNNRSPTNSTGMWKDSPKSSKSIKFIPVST
smiles,measurement,setting,value
Clc1cnc2n1CCCc1nnc([C@H]3CC[C@H](Oc4ccccn4)CC3)n1-2,Ki,Vasopressin V1a receptor,14 nM
same,CLH,[1],1 µL/min/mg
same,Papp A→B,in vitro [2],410 nm/s
same,solubility kinetic,physchem [3],49.6 µM
Clc1cnc2n1CCCc1nnc(C3CCN(c4ccccn4)CC3)n1-2,Ki,Vasopressin V1a receptor,140 nM
same,microsomal CLint,in vitro [4],4 µL/min/mg
same,microsomal CLint,in vitro [5],32 µL/min/mg
same,microsomal CLint,in vitro [6],33 µL/min/mg
same,solubility kinetic,physchem [3],93.8 µM
CCO/N=C/C(O)CNC(C)(C)C (centres undefined),Ki,[7],850 nM
same,IC50,[8],269 nM
same,Ki,[9],850 nM
same,IC50,[10],8320 nM
Clc1ccc2c(c1)CCCc1nnc(C3CCN(c4ccccn4)CC3)n1-2,efflux ratio,in vitro [11],1
same,solubility kinetic,physchem [3],8.9 µM
COC(=O)N[C@H](C(=O)N1CCC[C@H]1c1nc2cc(-c3csc4c(-c5ccc(-c6c[nH]c([C@@H]7CCCN7C(=O)[C@H](NC(=O)OC)c7ccccc7)n6)cc5)csc34)ccc2[nH]1)C(C)C,EC50,Hepatitis C virus [12],0.1 nM
same,EC50,Hepatitis C virus [13],0.002 nM
same,EC50,Hepatitis C virus [14],0.002 nM
same,EC50,Hepatitis C virus [15],0.002 nM
same,EC50,Hepatitis C virus [16],0.002 nM
same,EC50,Hepatitis C virus [17],0.002 nM
CCN1CCC(Cc2ccc(Cl)cc2)(C(=O)/C=C(\O)C(=O)O)CC1,IC50,Influenza A virus,1100 nM
same,Ki,[18],90 nM
O=C(CCCCCCC(=O)Nc1ccccc1)NO [VORINOSTAT],logD,physchem [19],0.99
